Tests used:
[1] = molecular target: T1, TREX1 (Three-prime Repair EXonuclease 1), mouse (Mus musculus, UniProt Q91XB0); test: fluorescence exonuclease assay (FAM-12mer-BHQ1) in HEK293T overexpression lysate, with D18N and empty-vector controls; format: biochemical
T1 construct: full-length mouse TREX1 (wild-type), overexpressed in HEK293T
T1 sequence (Q91XB0 1-314): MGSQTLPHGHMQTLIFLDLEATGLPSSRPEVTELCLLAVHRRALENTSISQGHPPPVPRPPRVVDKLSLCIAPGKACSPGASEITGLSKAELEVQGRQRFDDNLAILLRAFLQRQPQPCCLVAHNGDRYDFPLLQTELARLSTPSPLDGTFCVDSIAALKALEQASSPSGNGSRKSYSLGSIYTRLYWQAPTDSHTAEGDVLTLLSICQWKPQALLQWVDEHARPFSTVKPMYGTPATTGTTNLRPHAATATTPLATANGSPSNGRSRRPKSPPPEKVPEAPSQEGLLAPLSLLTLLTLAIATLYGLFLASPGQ

[2] = molecular target: T2, TREX1 (Three-prime Repair EXonuclease 1), human (Homo sapiens, UniProt Q9NSU2); test: BioVision […]' to […]' exonuclease activity assay in THP1-Dual lysate, with TREX1 knockout lysate control; format: biochemical
T2 construct: endogenous human TREX1 in THP1-Dual cell lysate
T2 sequence (Q9NSU2 1-314): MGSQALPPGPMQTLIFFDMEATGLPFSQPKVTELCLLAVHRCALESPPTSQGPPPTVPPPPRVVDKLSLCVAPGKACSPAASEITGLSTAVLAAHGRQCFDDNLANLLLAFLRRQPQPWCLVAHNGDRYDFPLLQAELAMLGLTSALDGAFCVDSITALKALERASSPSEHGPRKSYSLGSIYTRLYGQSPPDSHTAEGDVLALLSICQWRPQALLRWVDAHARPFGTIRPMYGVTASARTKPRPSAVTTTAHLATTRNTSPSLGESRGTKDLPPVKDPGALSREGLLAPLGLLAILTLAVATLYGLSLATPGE

IC50 [1]: 3.1 nM
IC50 [2]: 48.8 nM
Substance: VB-85680

From paper PMC11343403, “A novel TREX1 inhibitor, VB-85680, upregulates cellular interferon responses” (PLOS ONE, 2024)
